# Measurements: patent US20230346893A1, “Methods and Compositions for Preventing or Minimizing Epithelial-Mesenchymal Transition” (Innovon Pharmaceuticals Inc., priority 2016, published 2023)
# Key:
# HK-2 cells [1] = experiment: TGF-β-induced collagen 1 mRNA expression (EMT marker) in HK-2 cells, quantitative real-time PCR; type: cell-based, human
# HK-2 cells [2] = experiment: as above; type: cell-based, human; conditions: for Effect on expression of collagen in TGF-β-induced HK-2 cells (in words): alone or formulated with albumin, concentrations of Table 1; for Changes in collagen mRNA expression (relative to TGF-β-treated cells): fatty acid concentration 5.0 × 10^−4M, TGF-β 10 ng/ml
# Experimental: HSA was dissolved in PBS to obtain a concentration of 6.6% (6.6 g/100 ml), and was filtered using a 0.2 μm filter. 75 μl of sodium octanoate or sodium decanoate 10 mM was mixed with 75 μl of HSA 6.6% (without vortex), and incubated 10 min at room temperature. 100 μL of this mixture was used in the assay of Example 4 in a final volume of 1 ml (dilution 1:10).
# Analysis was undertaken to determine the effect of various compositions on TGF-β-induced collagen 1 expression, which is a marker of EMT, on immortalized human proximal tubule epithelial cells (HK-2 cells). HK-2 cells were treated with TGF-β (an inducer of EMT) at a concentration of 10 ng/ml. Expression of the EMT marker collagen 1 mRNA was determined by quantitative real-time PCR.
# (§1) Real-Time PCR was using human TaqMan Gene Expression Assay normalized to human GAPDH endogenous control. Reference is TGF-β1 control (RQ=1). The * and ** mean a p value of 0.05 and 0.01 respectively, compared to reference. Tested concentration of the mixture of sodium octanoate and sodium decanoate is 500 μM. The number of experiments is 3 (n=3).
# PC-3 cells = experiment: Scratch assay, migration/invasion of mitomycin-treated EGF-induced PC-3 cells; type: cell-based, human; conditions: EGF 50 ng/mL + Mitomycin C 10 μg/mL, 24 h; for EGF-induced PC-3 migration or invasion (FIG. 7, in words): with and without albumin
# Description: The present experiment exemplifies EMT analysis of cancer cells through invasion/migration of PC-3 cell in a “scratch assay”. This assay is based on the observation that, upon creation of a new artificial gap, so called ‘scratch’, on a confluent cell monolayer, the cells on the edge of the newly created gap will move toward the opening to close the scratch. EGF ([…]) was used to induce the migratory/invasion of PC-3 cells into the scratch. Briefly, culture-inserts are placed in a 24-well cell culture plate. PC-3 cells are seeded in culture-inserts and are incubated overnight at 37° C. in a CO2 incubator. Cells are then starved with serum-free medium for another 24 hours. The insert is removed, leaving a visible 500 μm cell-free gap. Cells were treated for 24 h with EGF at 50 ng/mL and Mitomycin C at 10 μg/mL (Mito+EGF) and with a pro-EMT agent, sodium octanoate (Mito+EGF+sodium octanoate) or an anti-EMT agent, sodium decanoate (Mito+EGF+sodium decanoate), with HSA (second row in FIG. 7) and without HSA (first row in FIG. 7). Pictures are taken at 1 h post-treatment as a confluence control for each group. After 24 h, cells are fixed with Crystal Violet staining and air dried before 24 h post treatment pictures are taken.
# [3] = tested on: human hepatocellular carcinoma cell line HepG2; experiment: Collagen 1a1 mRNA expression (EMT marker) in TGF-β induced HepG2; type: cell-based; conditions: 500 μM; both in presence of albumin (With HSA) or absence of albumin (No HSA); n=3
# Experimental: as §1, with “*, **” for “*”, “****” for “**”, “0.05, 0.01” for “0.05”, “0.0001” for “0.01”, “concentration” for “concentration of the mixture”
# [4] = tested on: human microvascular endothelial cells (HMEC); experiment: Collagen 1a1 mRNA expression (EndoMT/EMT marker) in TGF-β induced HMEC; type: cell-based; conditions: 500 μM; both in presence of albumin (With HSA) or absence of albumin (No HSA); n=3
# Experimental: Endothelial to mesenchymal transition (EndoMT), which is included in the definition of the expression EMT as used in the present description, can be induced by transforming growth factor (TGF-β). […] Real-Time PCR was using human TaqMan Gene Expression Assay normalized to human GAPDH endogenous control. Reference is TGF-β1 control (RQ=1). The ** and *** mean a p value of 0.01 and 0.001 respectively, compared to reference. Tested concentration of sodium octanoate and sodium decanoate is 500 μM. The number of experiments is 3 (n=3).
# [5] = tested on: human lung epithelial cell A549; experiment: Collagen 1a1 mRNA expression (EMT marker) in TGF-β induced A549; type: cell-based; conditions: 500 μM; both in presence of albumin (With HSA) or absence of albumin (No HSA); n=3
# Experimental: as §1, with “***” for “*”, “****” for “**”, “0.001” for “0.05”, “0.0001” for “0.01”, “concentration” for “concentration of the mixture”
# [6] = fatty acid concentration 2.5 × 10^−4M, TGF-β 10 ng/ml
structure (smiles),measurement,setting,value
CCCCCCCCCC(=O)O [Decanoic Acid],Changes in collagen mRNA expression (relative to TGF-β-treated cells),"HK-2 cells [1]; fatty acid concentration 5.8 × 10^−7M, TGF-β 10 ng/ml",105.4% of decrease
CCCCCCCCC(=O)O [Nonanoic Acid],Effect on expression of collagen in TGF-β-induced HK-2 cells (in words),HK-2 cells [2],inhibited the expression of collagen
same,Changes in collagen mRNA expression (relative to TGF-β-treated cells),"HK-2 cells [1]; fatty acid concentration 6.3 × 10^−7M, TGF-β 10 ng/ml",51.4% of decrease
CCCCCCCCCC(=O)[O-].[Na+] [Sodium Decanoate],"EGF-induced PC-3 migration or invasion (FIG. 7, in words)",PC-3 cells,inhibition of the EGF-induced PC-3 migration or invasion
same,"Mesenchymal transition induced by TGF-β (collagen 1a1 mRNA expression, FIG. 5, in words)",[3],reduced significantly the mesenchymal transition
same,"Mesenchymal transition induced by TGF-β (collagen 1a1 mRNA expression, FIG. 4, in words)",[4],reduced significantly the mesenchymal transition
same,Effect on expression of collagen in TGF-β-induced HK-2 cells (in words),HK-2 cells [2],decrease (or inhibit) the expression of collagen
same,Changes in collagen mRNA expression (relative to TGF-β-treated cells),HK-2 cells [2],103.4% of decrease
same,"Mesenchymal transition induced by TGF-β (collagen 1a1 mRNA expression, FIG. 6, in words)",[5],reduced significantly the mesenchymal transition
same,Changes in collagen mRNA expression (relative to TGF-β-treated cells),HK-2 cells [1]; [6],66.6% of decrease
CCCCCCCCCCCC(=O)[O-].[Na+] [Sodium Laurate],Effect on expression of collagen in TGF-β-induced HK-2 cells (in words),HK-2 cells [2],inhibited the expression of collagen
same,Changes in collagen mRNA expression (relative to TGF-β-treated cells),"HK-2 cells [1]; fatty acid concentration 1.0 × 10^−4M, TGF-β 10 ng/ml",113.7% of decrease
"CCCCCCCC(=O)[O-].[Na+] [Sodium Octanoate, reference compound]","EGF-induced PC-3 migration (FIG. 7, in words)",PC-3 cells; combined with albumin,migration is increased
same,"EGF-induced PC-3 migration or invasion (FIG. 7, in words)",PC-3 cells,does not inhibit the cell migration
same,"Mesenchymal transition induced by TGF-β (collagen 1a1 mRNA expression, FIG. 5, in words)",[3],contrarily
same,"Mesenchymal transition induced by TGF-β (collagen 1a1 mRNA expression, FIG. 4, in words)",[4],contrarily
same,Effect on expression of collagen in TGF-β-induced HK-2 cells (in words),HK-2 cells [2],expression of collagen was increased (or stimulated)
same,Changes in collagen mRNA expression (relative to TGF-β-treated cells),HK-2 cells [2],24.1% of increase
same,"Mesenchymal transition induced by TGF-β (collagen 1a1 mRNA expression, FIG. 6, in words)",[5],no significant results
same,Changes in collagen mRNA expression (relative to TGF-β-treated cells),HK-2 cells [1]; [6],42.2% of increase
CCCCCCCCCC(=O)OCC(COC(=O)CCCCCCCCC)OC(=O)CCCCCCCCC [Tricaprin],Changes in collagen mRNA expression (relative to TGF-β-treated cells),HK-2 cells [1]; triglyceride concentration 5%,120.4% of decrease
CCCCCCCCCCCC(=O)OCC(COC(=O)CCCCCCCCCCC)OC(=O)CCCCCCCCCCC [Trilaurin],Changes in collagen mRNA expression (relative to TGF-β-treated cells),HK-2 cells [1]; triglyceride concentration 5%,84.6% of decrease
CCCCCCCCCCCCCC(=O)OCC(COC(=O)CCCCCCCCCCCCC)OC(=O)CCCCCCCCCCCCC [Trimyristin],Changes in collagen mRNA expression (relative to TGF-β-treated cells),HK-2 cells [1]; triglyceride concentration 5%,52.3% of decrease
CCCCCCCCCCC(=O)O [Undecanoic Acid],Effect on expression of collagen in TGF-β-induced HK-2 cells (in words),HK-2 cells [2],inhibited the expression of collagen
same,Changes in collagen mRNA expression (relative to TGF-β-treated cells),"HK-2 cells [1]; fatty acid concentration 2.7 × 10^−7M, TGF-β 10 ng/ml",120.95% of decrease
